Laboratory results reported in the supplement of paper PMC10307832.

How the values were obtained:
Test in all cases: relative viability (nuclei count vs DMSO), 5 days (fraction); higher = more cells survive
Pazopanib + Trametinib = compound: Cc1ccc(Nc2nccc(N(C)c3ccc4c(C)n(C)nc4c3)n2)cc1S(N)(=O)=O [Pazopanib] + CC(=O)Nc1cccc(-n2c(=O)n(C3CC3)c(=O)c3c(Nc4ccc(I)cc4F)n(C)c(=O)c(C)c32)c1 [Trametinib] (partner 0.02 µM)
Outline: (§1)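 Lung cancer cell lines were pin-tool dosed in 1536-well plates on the day after seeding, with either a lone drug or a fixed anchor-drug dose plus five library-drug doses (not always all listed) in √10 steps. Nuclei were counted on 4× images after 5 days. Relative viability is the ratio of treated-well to vehicle-well nuclei counts, with each value a median of duplicate plates.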

Pazopanib + Pictilisib = compound: Cc1ccc(Nc2nccc(N(C)c3ccc4c(C)n(C)nc4c3)n2)cc1S(N)(=O)=O [Pazopanib] + CS(=O)(=O)N1CCN(Cc2cc3nc(-c4cccc5[nH]ncc45)nc(N4CCOCC4)c3s2)CC1 [Pictilisib] (partner 1 µM)
Outline: as §1

Ponatinib + Dasatinib = compound: Cc1ccc(C(=O)Nc2ccc(CN3CCN(C)CC3)c(C(F)(F)F)c2)cc1C#Cc1cnc2cccnn12 [Ponatinib] + Cc1nc(Nc2ncc(C(=O)Nc3c(C)cccc3Cl)s2)cc(N2CCN(CCO)CC2)n1 [Dasatinib] (partner 0.075 µM)
Outline: as §1

Pazopanib + Foretinib = compound: Cc1ccc(Nc2nccc(N(C)c3ccc4c(C)n(C)nc4c3)n2)cc1S(N)(=O)=O [Pazopanib] + COc1cc2c(Oc3ccc(NC(=O)C4(C(=O)Nc5ccc(F)cc5)CC4)cc3F)ccnc2cc1OCCCN1CCOCC1 [Foretinib] (partner 0.25 µM)
Outline: as §1

Row | Cell Line | relative viability (Pazopanib + Trametinib; first compound 0.01 µM) | relative viability (Pazopanib + Trametinib; first compound 0.03162 µM) | relative viability (Pazopanib + Trametinib; first compound 0.1 µM) | relative viability (Pazopanib + Trametinib; first compound 0.3162 µM) | relative viability (Pazopanib + Trametinib; first compound 1 µM) | relative viability (Pazopanib + Pictilisib; first compound 0.01 µM) | relative viability (Pazopanib + Pictilisib; first compound 0.03162 µM) | relative viability (Pazopanib + Pictilisib; first compound 0.1 µM) | relative viability (Pazopanib + Pictilisib; first compound 0.3162 µM) | relative viability (Pazopanib + Pictilisib; first compound 1 µM) | relative viability (Ponatinib + Dasatinib; first compound 0.002 µM) | relative viability (Ponatinib + Dasatinib; first compound 0.006325 µM) | relative viability (Ponatinib + Dasatinib; first compound 0.06325 µM) | relative viability (Ponatinib + Dasatinib; first compound 0.2 µM) | relative viability (Pazopanib + Foretinib; first compound 0.01 µM) | relative viability (Pazopanib + Foretinib; first compound 0.03162 µM) | relative viability (Pazopanib + Foretinib; first compound 0.1 µM) | relative viability (Pazopanib + Foretinib; first compound 0.3162 µM) | relative viability (Pazopanib + Foretinib; first compound 1 µM)
1 | HCC-44 | 1.03 | 1 | 1.03 | 1 | 1.09 | 0.421 | 0.599 | 0.659 | 0.521 | 0.673 |  |  |  |  |  |  |  |  | 
2 | HCC-827 | 0.558 | 0.551 | 0.546 | 0.547 | 0.559 | 0.894 | 1.17 | 1.03 | 0.946 | 1.12 | 0.241 | 0.344 | 0.296 | 0.248 | 1.07 | 0.992 | 1.05 | 1.06 | 0.969
3 | NCI-H1623 |  |  |  |  |  |  |  |  |  |  | 0.524 | 0.527 | 0.55 | 0.539 | 0.835 | 0.846 | 0.834 | 0.896 | 0.911
4 | NCI-H2405 | 0.562 | 0.672 | 0.666 | 0.644 | 0.524 | 0.321 | 0.514 | 0.424 | 0.583 | 0.586 | 0.17 | 0.206 | 0.187 | 0.202 | 0.997 | 1.13 | 1.11 | 1.11 | 1.08
5 | PC-3 [JPC-3] |  | 0.686 | 0.73 | 0.835 | 0.65 | 0.745 | 0.707 | 0.808 | 0.73 | 0.716 | 0.99 | 0.981 | 1.12 | 0.917 | 1.05 | 1.01 | 1.12 | 1.06 | 0.995
6 | NCI-H1651 | 0.833 | 0.831 | 0.814 | 0.808 | 0.862 | 0.456 | 0.542 | 0.494 | 0.611 | 0.684 | 0.398 | 0.435 | 0.451 | 0.355 | 0.836 | 0.734 | 0.817 | 0.773 | 0.895
7 | HARA | 0.829 | 0.94 | 0.604 | 0.755 | 0.725 | 0.26 | 0.332 | 0.493 | 0.479 | 0.343 | 0.281 | 0.215 | 0.233 | 0.173 | 0.902 | 0.977 | 1 | 0.884 | 0.95
8 | NCI-H1650 | 0.725 | 0.682 | 0.734 | 0.629 | 0.695 | 0.54 | 0.696 | 0.529 | 0.611 | 0.661 | 0.298 | 0.346 | 0.327 | 0.349 | 1.12 | 1.2 | 1.15 | 1.05 | 1.09
9 | NCI-H1793 |  | 0.425 | 0.411 | 0.404 | 0.502 |  | 0.361 | 0.355 | 0.392 | 0.36 | 0.37 | 0.36 | 0.348 | 0.352 |  | 0.478 | 0.628 | 0.867 | 0.938
